Laboratory results reported in patent US20110014294A1, “STIMULATION OF OCULAR RETROBULBAR BLOOD FLOW USING OCULAR IRRITANTS” (PHARMALIGHT INC., priority 2008, published 2011).

Experiments:
eye = test: Discomfort and irritation of animals after benzalkonium chloride compositions (Example 2); type: in vivo
retrobulbar blood flow = test: Effect of benzalkonium chloride compositions on retrobulbar blood flow (Example 2); type: in vivo; conditions: benzalkonium chloride (0.01%, 0.05, 0.1%, 0.2% in isotonic PBS pH 7.4), sufficient amount, as a mist; animals
Method: The effect of compositions including benzalkonium chloride administered in accordance with the teachings herein is performed substantially as described in Example 1. Specifically, four isotonic PBS compositions having pH of 7.4 are prepared having 0.01%, 0.05, 0.1% and 0.2% benzalkonium chloride, respectively, as an ocular irritant.
The compositions are administered to animals and the effect on retrobulbar blood flow is determined, substantially as described above.

## benzalkonium chloride
eye; benzalkonium chloride composition as a mist
  Discomfort and irritation: little or no substantial discomfort and irritation
eye; benzalkonium chloride composition as drops
  Discomfort and irritation: cause discomfort and irritation
Retrobulbar blood flow
  Effect on retinal blood flow: substantial increase in retinal blood flow
